Experimental data reported in patent US20220096449A1, “METHOD OF TREATMENT WITH TRADIPITANT” (Vanda Pharmaceuticals Inc., priority 2018, published 2022).
Where “and” joins values, the source holds several entries; their conditions need not be identical. Identical values can stand only once.

Key:
[1] = system: panel of 74 other receptors, enzymes, and ion channels; assay: Binding panel of 74 other receptors, enzymes and ion channels; conditions: test concentration of 1 μM; any of 74 targets
NK-2 receptor = target: T1, NK-2 receptor (Homo sapiens, UniProt P21452); assay: NK-2 receptor inhibition; format: binding
T1 sequence (P21452 1-398): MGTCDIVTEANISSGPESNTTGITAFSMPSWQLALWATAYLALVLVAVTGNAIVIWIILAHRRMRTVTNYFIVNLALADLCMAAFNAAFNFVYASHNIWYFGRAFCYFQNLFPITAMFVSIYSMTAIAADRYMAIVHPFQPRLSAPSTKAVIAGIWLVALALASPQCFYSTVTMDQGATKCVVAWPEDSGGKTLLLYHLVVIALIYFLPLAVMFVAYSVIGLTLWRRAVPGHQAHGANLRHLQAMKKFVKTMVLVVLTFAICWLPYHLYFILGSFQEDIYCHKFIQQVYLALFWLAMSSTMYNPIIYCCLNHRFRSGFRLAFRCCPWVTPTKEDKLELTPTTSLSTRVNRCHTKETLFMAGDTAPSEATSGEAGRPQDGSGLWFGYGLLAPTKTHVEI

NK-3 receptor = target: T2, NK-3 receptor (Homo sapiens, UniProt P29371); assay: NK-3 receptor inhibition; format: binding
T2 sequence (P29371 1-465): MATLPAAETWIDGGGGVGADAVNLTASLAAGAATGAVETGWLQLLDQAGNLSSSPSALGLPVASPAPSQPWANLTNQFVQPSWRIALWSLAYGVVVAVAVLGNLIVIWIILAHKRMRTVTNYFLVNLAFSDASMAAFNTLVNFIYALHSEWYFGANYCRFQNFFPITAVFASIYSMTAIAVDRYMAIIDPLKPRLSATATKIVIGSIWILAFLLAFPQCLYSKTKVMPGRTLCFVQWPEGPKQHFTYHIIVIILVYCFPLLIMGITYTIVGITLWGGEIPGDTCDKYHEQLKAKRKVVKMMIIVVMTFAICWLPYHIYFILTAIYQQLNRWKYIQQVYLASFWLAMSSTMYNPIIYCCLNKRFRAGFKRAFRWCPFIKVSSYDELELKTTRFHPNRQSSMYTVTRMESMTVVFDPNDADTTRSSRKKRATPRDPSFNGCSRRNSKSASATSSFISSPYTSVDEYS

[2] = Plasma concentration of tradipitant 2 hours post-dose in dogs; format: in vivo, beagle dog; conditions: individual dogs
Method: All animals are dosed over a period of five (5) weeks, with each dog receiving one of five different treatments on each day of dosing. […] In cases where apomorphine is administered alone, without prior treatment with tradipitant or aprepitant, apomorphine is given at approximately the same time as when given in combination with tradipitant or aprepitant.

brain NK-1 receptors = assay: Brain NK-1 receptor occupancy with tracer GR205171; format: in vivo; conditions: p.o., tracer GR205171 iv
Method: A tracer NK-1 antagonist compound (GR205171) is used to evaluate the ability of other NK-1 antagonists to occupy the brain NK-1 receptors. In these studies, the test compounds are administered orally and the tracer compound is administered intravenously afterward. The occupancy of the NK-1 receptors is evaluated by quantitating the amount of the tracer compound bound to the brain NK-1 receptors after increasing doses of the test compounds.

[3] = system: patients with gastroparesis; assay: Phase II gastroparesis study, open label extension (Example 4); format: in vivo, human
From the text: In a phase II study of tradipitant in patients with gastroparesis, participants initially enter 4 week screening period prior to treatment with tradipitant, during which they answer a daily symptom questionnaire rating their nausea severity on a scale of 0 to 5, in which 0 represents no nausea, 1 represents very mild nausea, 2 represents mild nausea, 3 represents moderate nausea, 4 represents severe nausea, and 5 represents very severe nausea. After the 4 week screening period, patients enter the double blind randomized portion of the study, in which they receive either tradipitant 85 mg bid, or placebo. After 4 weeks of blinded study drug treatment, patients have the opportunity to enter an additional 8 week open label extension, during which each subject receives tradipitant 85 mg bid. 64 subjects participate in at least one week of the open label tradipitant dosing portion of the study. The average daily diarized nausea scores are reported for subjects during the 4 week screening period and during the up to 8 week open label extension.

NK-1 receptor = NK-1 receptor (Meriones unguiculatus, UniProt Q5DUB1); assay: NK-1 agonist (GR73632)-induced foot-tapping behavior in gerbils; format: in vivo; set-up: from tissue; host or cells: living gerbils (central NK-1 receptors); conditions: gerbil
Chain of NK-1 receptor (Q5DUB1 whole entry): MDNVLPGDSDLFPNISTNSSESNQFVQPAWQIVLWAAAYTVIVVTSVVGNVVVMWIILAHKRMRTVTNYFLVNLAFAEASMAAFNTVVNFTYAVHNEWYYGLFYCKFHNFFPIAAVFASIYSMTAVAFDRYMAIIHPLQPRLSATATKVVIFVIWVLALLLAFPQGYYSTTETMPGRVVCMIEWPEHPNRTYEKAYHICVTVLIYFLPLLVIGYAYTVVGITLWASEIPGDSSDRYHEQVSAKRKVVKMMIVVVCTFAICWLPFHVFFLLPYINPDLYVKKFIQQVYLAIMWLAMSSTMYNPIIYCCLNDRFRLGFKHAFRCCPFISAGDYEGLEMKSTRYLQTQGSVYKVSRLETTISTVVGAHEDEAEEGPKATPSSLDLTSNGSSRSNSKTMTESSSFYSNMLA
Method: Male Mongolian gerbils (Harlan Sprague Dawley, Indianapolis, Ind.) weighing 26 to 40 grams are administered the selective neurokinin-1 receptor agonist GR73632 ([…]) via direct, vertical, free-hand intracerebroventricular (icv) injection to a depth of 4.5 mm below bregma with a cuffed 27-gauge needle attached to a 50 μl Hamilton syringe Immediately after injection, animals are placed individually into isolated chambers with pressure-sensitive velocimeter platform floors (San Diego Instruments acoustic startle apparatus) that detect and quantify vibration. The San Diego Instruments “SR” DOS-based computer program is used on a PC to record the number of foot-taps over the following 6 to 10 minutes, beginning 30 seconds after the floor is lightly tapped. Raw data are converted with a Microsoft® Excel® (Microsoft® and Excel® are registered trademarks of Microsoft Corp., Redmond, Wash.) macro that determines the number of events over threshold (125) in each 250-millisecond time bin over the 5.5 minutes following onset of observation. The total number and average intensity of events over the duration is determined. Total number of taps is analyzed with one-way ANOVA and post-hoc Dunnett's test using JMP statistical software.
A dose-response curve (with doses of 0.3, 1, 3 and 10 pmols, icv) is initially generated with the NK-1 agonist GR73632.
NK-1 antagonists are tested for their ability to attenuate GR73632-induced foot tapping. NK-1 antagonists are administered (po) via oral feeding tube at doses and time points specified in each experiment. All animals receive only one dose of NK-1 antagonists in all tests.
NK-1 antagonists are administered at multiple doses (at least 3; one dose per animal) and response to GR73632 is measured.
NK-1 receptor antagonists are administered at multiple pre-treatment times (one administration per animal) including at 0.5, 1, 2, 4, 7, 16, and 24 hours prior to GR73632 injection. GR73632 (Peninsula Labs, CA) is dissolved in saline. Tradipitant is dissolved in 1% CMC/0.5% SLS/0.085% PVP vehicle.

inhibition of binding [1]: ≤ 50%
inhibition at NK-2 receptor (NK-2 receptor): no significant inhibition
inhibition at NK-3 receptor (NK-3 receptor): no significant inhibition
time after administration with significant inhibition of foot-tapping (NK-1 receptor; 0.1 mg/kg po): up to 7 hours
effect on foot-tapping by 16 hours after administration (NK-1 receptor; 0.1 mg/kg po, 16 hours): significantly diminished
inhibition at 1 mg/kg (NK-1 receptor; 1 mg/kg, 16 hours after administration): > 50%
ED50 (NK-1 receptor; oral, 2 hours after administration, GR73632 3 pmol icv, read-out: ED50, inhibition of foot-tapping behavior): 0.03 ± 0.004 mg/kg
SMILES: O=C(c1ccccc1Cl)c1cccnc1-c1nnn(Cc2cc(C(F)(F)F)cc(C(F)(F)F)c2)c1-c1ccncc1 [Tradipitant, {2-[1-(3,5-bistrifluoromethylbenzyl)-5-pyridin-4-yl-1H-[1,2,3]triazol-4-yl]-pyridin-3-yl}-(2-chlorophenyl)-methanone]
Concentration of tradipitant in plasma ([2]; 0.3 mg/kg oral): 90.93 ng/mL and 83.38 ng/mL and 22.59 ng/mL and 51.20 ng/mL and 41.33 ng/mL
Concentration of tradipitant in plasma ([2]; 1.0 mg/kg oral): 240.84 ng/mL and 100.97 ng/mL and 61.56 ng/mL and 175.58 ng/mL and 86.49 ng/mL
Concentration of tradipitant in plasma ([2]; 3.0 mg/kg oral): 316.20 ng/mL and 682.91 ng/mL and 119.79 ng/mL and 122.73 ng/mL and 256.58 ng/mL
ED50, occupancy of brain NK-1 receptors (brain NK-1 receptors): 0.04 mg/kg
mean daily nausea score ([3]; 0 to 5 scale, open label 85 mg bid for 1 to 8 weeks, 64 patients): about 1.63
median daily nausea score ([3]; 0 to 5 scale, open label extension 85 mg bid, 64 subjects): 1.35
change of average percentage of nausea-free days compared to pre-treatment ([3]; 85 mg bid): doubled or greater
reduction of average daily nausea scores compared to pre-treatment ([3]; 85 mg bid): reduced by approximately one half
mean percentage of days nausea-free ([3]; open label extension 85 mg bid): 45.91%
median percentage of nausea-free days ([3]; open label extension 85 mg bid): 49.11%
